Values after ≈ are worked out from the molar mass of the structure shown.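 Values below derive from 48-hour exposures of cells grown in 96-well plates, with endpoints linearly interpolated between the two concentrations bracketing the appropriate inhibition level. Abbreviation: GI50, concentration required for 50% inhibition of growth. TGI is the concentration that stops growth completely.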
Columns and labels:
Test in all cases: NCI anticancer screen, dose series, 48 h
786-0 renal = test system: 786-0 renal
A498 renal = test system: A498 renal
A549 NSCLC = test system: A549 NSCLC
ACHN renal = test system: ACHN renal
BT-549 breast = test system: BT-549 breast
CAKI-1 renal = test system: CAKI-1 renal
CCRF-CEM leukemia = test system: CCRF-CEM leukemia
COLO 205 colon = test system: COLO 205 colon
DU-145 prostate = test system: DU-145 prostate
EKVX NSCLC = test system: EKVX NSCLC
HCC-2998 colon = test system: HCC-2998 colon
HCT-116 colon = test system: HCT-116 colon
HCT-15 colon = test system: HCT-15 colon
HOP-62 NSCLC = test system: HOP-62 NSCLC
HT29 colon = test system: HT29 colon
IGROV1 ovarian = test system: IGROV1 ovarian
K-562 leukemia = test system: K-562 leukemia
KM12 colon = test system: KM12 colon
LOX IMVI melanoma = test system: LOX IMVI melanoma
M14 melanoma = test system: M14 melanoma
MALME-3M melanoma = test system: MALME-3M melanoma
MCF7 breast = test system: MCF7 breast
MDA-MB-231 breast = test system: MDA-MB-231 breast
MDA-MB-435 = test system: MDA-MB-435
MDA-N = test system: MDA-N
MOLT-4 leukemia = test system: MOLT-4 leukemia
NCI-H226 lung = test system: NCI-H226 lung
NCI-H23 lung = test system: NCI-H23 lung
NCI-H522 lung = test system: NCI-H522 lung
NCI/ADR-RES ovarian = test system: NCI/ADR-RES ovarian
OVCAR-3 ovarian = test system: OVCAR-3 ovarian
OVCAR-4 ovarian = test system: OVCAR-4 ovarian
OVCAR-5 ovarian = test system: OVCAR-5 ovarian
OVCAR-8 ovarian = test system: OVCAR-8 ovarian
PC-3 prostate = test system: PC-3 prostate
RPMI-8226 leukemia = test system: RPMI-8226 leukemia
RXF 393 renal = test system: RXF 393 renal
SF-268 CNS = test system: SF-268 CNS
SF-295 CNS = test system: SF-295 CNS
SF-539 CNS = test system: SF-539 CNS
SK-MEL-2 melanoma = test system: SK-MEL-2 melanoma
SK-MEL-28 melanoma = test system: SK-MEL-28 melanoma
SK-MEL-5 melanoma = test system: SK-MEL-5 melanoma
SK-OV-3 ovarian = test system: SK-OV-3 ovarian
SN12C renal = test system: SN12C renal
SNB-19 CNS = test system: SNB-19 CNS
SNB-75 CNS = test system: SNB-75 CNS
SR leukemia = test system: SR leukemia
SW-620 colon = test system: SW-620 colon
TK-10 renal = test system: TK-10 renal
U251 CNS = test system: U251 CNS
UACC-257 melanoma = test system: UACC-257 melanoma
UACC-62 melanoma = test system: UACC-62 melanoma
UO-31 renal = test system: UO-31 renal
HL-60(TB) leukemia = test system: HL-60(TB) leukemia
HS 578T breast = test system: HS 578T breast
HOP-92 NSCLC = test system: HOP-92 NSCLC
NCI-H460 lung = test system: NCI-H460 lung

SMILES: COC(=O)C([C@H]1CC[C@H](OCc2ccccc2)[C@@]1(O)COCc1ccccc1)C(C)(O)CCc1ccccc1 (some centres not stated)
- TGI (786-0 renal): 27.4 µM
- TGI (A498 renal): 28.6 µM
- TGI (A549 NSCLC): 27.1 µM
- TGI (ACHN renal): 29.2 µM
- TGI (BT-549 breast): 30.8 µM
- TGI (CAKI-1 renal): > 100 µM
- TGI (CCRF-CEM leukemia): 60.2 µM
- TGI (COLO 205 colon): 25.8 µM
- TGI (DU-145 prostate): 72.7 µM
- TGI (EKVX NSCLC): 38.2 µM
- TGI (HCC-2998 colon): 33.2 µM
- TGI (HCT-116 colon): 24.2 µM
- TGI (HCT-15 colon): 37.4 µM
- TGI (HOP-62 NSCLC): 29.6 µM
- TGI (HT29 colon): 22.2 µM
- TGI (IGROV1 ovarian): 29.3 µM
- TGI (K-562 leukemia): 35.5 µM
- TGI (KM12 colon): 16.4 µM
- TGI (LOX IMVI melanoma): 22.8 µM
- TGI (M14 melanoma): 22.9 µM
- TGI (MALME-3M melanoma): 25.7 µM
- TGI (MCF7 breast): 25.3 µM
- TGI (MDA-MB-231 breast): 26.2 µM
- TGI (MDA-MB-435): 29.4 µM
- TGI (MDA-N): 26.6 µM
- TGI (MOLT-4 leukemia): 19.7 µM
- TGI (NCI-H226 lung): 26.6 µM
- TGI (NCI-H23 lung): 37.8 µM
- TGI (NCI-H522 lung): 26.1 µM
- TGI (NCI/ADR-RES ovarian): 26.5 µM
- TGI (OVCAR-3 ovarian): 27.2 µM
- TGI (OVCAR-4 ovarian): 43.9 µM
- TGI (OVCAR-5 ovarian): 27 µM
- TGI (OVCAR-8 ovarian): 41.5 µM
- TGI (PC-3 prostate): 16.3 µM
- TGI (RPMI-8226 leukemia): 43.3 µM
- TGI (RXF 393 renal): 25.9 µM
- TGI (SF-268 CNS): 22 µM
- TGI (SF-295 CNS): 23.3 µM
- TGI (SF-539 CNS): 29.1 µM
- TGI (SK-MEL-2 melanoma): 25.3 µM
- TGI (SK-MEL-28 melanoma): 30.1 µM
- TGI (SK-MEL-5 melanoma): 27.6 µM
- TGI (SK-OV-3 ovarian): > 100 µM
- TGI (SN12C renal): 16.2 µM
- TGI (SNB-19 CNS): > 100 µM
- TGI (SNB-75 CNS): 19.7 µM
- TGI (SR leukemia): 26.4 µM
- TGI (SW-620 colon): 28.9 µM
- TGI (TK-10 renal): 39.9 µM
- TGI (U251 CNS): 27.2 µM
- TGI (UACC-257 melanoma): 35.1 µM
- TGI (UACC-62 melanoma): 26.6 µM
- TGI (UO-31 renal): 23.7 µM

SMILES: CC(=O)OC1CCC(OC(C)=O)[C@H]2[C@@H]1[C@@H]1S[C@H]2c2ccccc21 (some centres not stated)
- GI50 (786-0 renal): 85.6 µg/mL (≈ 257 µM)
- GI50 (A498 renal): 43.9 µg/mL (≈ 132 µM)
- GI50 (CCRF-CEM leukemia): 36.4 µg/mL (≈ 109 µM)
- GI50 (COLO 205 colon): 59.1 µg/mL (≈ 178 µM)
- GI50 (DU-145 prostate): 85.3 µg/mL (≈ 257 µM)
- GI50 (EKVX NSCLC): 54.8 µg/mL (≈ 165 µM)
- GI50 (HCC-2998 colon): 50.1 µg/mL (≈ 151 µM)
- GI50 (HCT-15 colon): 93.7 µg/mL (≈ 282 µM)
- GI50 (HL-60(TB) leukemia): 22 µg/mL (≈ 66.1 µM)
- GI50 (HS 578T breast): 76.1 µg/mL (≈ 229 µM)
- GI50 (K-562 leukemia): 35.9 µg/mL (≈ 108 µM)
- GI50 (KM12 colon): 49 µg/mL (≈ 147 µM)
- GI50 (LOX IMVI melanoma): 80.6 µg/mL (≈ 242 µM)
- GI50 (M14 melanoma): 27.9 µg/mL (≈ 84 µM)
- GI50 (MALME-3M melanoma): 62.1 µg/mL (≈ 187 µM)
- GI50 (MDA-MB-435): 21.6 µg/mL (≈ 64.9 µM)
- GI50 (MDA-N): 24.2 µg/mL (≈ 72.8 µM)
- GI50 (NCI-H522 lung): 32.5 µg/mL (≈ 97.7 µM)
- GI50 (NCI/ADR-RES ovarian): 99.2 µg/mL (≈ 298 µM)
- GI50 (OVCAR-4 ovarian): 31.3 µg/mL (≈ 94.1 µM)
- GI50 (SF-295 CNS): 36 µg/mL (≈ 108 µM)
- GI50 (SK-MEL-28 melanoma): 97.3 µg/mL (≈ 293 µM)
- GI50 (SK-OV-3 ovarian): 4.09 µg/mL (≈ 12.3 µM)
- GI50 (SNB-75 CNS): 48.1 µg/mL (≈ 145 µM)
- GI50 (TK-10 renal): 35.7 µg/mL (≈ 108 µM)
- GI50 (U251 CNS): 81.9 µg/mL (≈ 246 µM)
- GI50 (UACC-257 melanoma): 76.8 µg/mL (≈ 231 µM)
- GI50 (UACC-62 melanoma): 41.4 µg/mL (≈ 124 µM)

SMILES: COC(=S)OC1CC(n2cnc3c(=O)[nH]cnc32)OC1CO[Si](C)(C)C(C)(C)C (configuration not stated)
- TGI (786-0 renal): > 100 µM
- TGI (A498 renal): > 100 µM
- TGI (A549 NSCLC): > 100 µM
- TGI (ACHN renal): > 100 µM
- TGI (CAKI-1 renal): > 100 µM
- TGI (CCRF-CEM leukemia): > 100 µM
- TGI (COLO 205 colon): > 100 µM
- TGI (DU-145 prostate): > 100 µM
- TGI (EKVX NSCLC): > 100 µM
- TGI (HCT-116 colon): > 100 µM
- TGI (HCT-15 colon): > 100 µM
- TGI (HL-60(TB) leukemia): > 100 µM
- TGI (HOP-62 NSCLC): > 100 µM
- TGI (HOP-92 NSCLC): > 100 µM
- TGI (HS 578T breast): > 100 µM
- TGI (HT29 colon): > 100 µM
- TGI (IGROV1 ovarian): > 100 µM
- TGI (K-562 leukemia): > 100 µM
- TGI (KM12 colon): > 100 µM
- TGI (LOX IMVI melanoma): > 100 µM
- TGI (M14 melanoma): > 100 µM
- TGI (MALME-3M melanoma): > 100 µM
- TGI (MCF7 breast): > 100 µM
- TGI (MDA-MB-231 breast): > 100 µM
- TGI (MDA-MB-435): > 100 µM
- TGI (MDA-N): > 100 µM
- TGI (MOLT-4 leukemia): > 100 µM
- TGI (NCI-H226 lung): > 100 µM
- TGI (NCI-H23 lung): > 100 µM
- TGI (NCI-H460 lung): > 100 µM
- TGI (NCI-H522 lung): > 100 µM
- TGI (NCI/ADR-RES ovarian): > 100 µM
- TGI (OVCAR-3 ovarian): > 100 µM
- TGI (OVCAR-4 ovarian): > 100 µM
- TGI (OVCAR-5 ovarian): > 100 µM
- TGI (OVCAR-8 ovarian): > 100 µM
- TGI (PC-3 prostate): > 100 µM
- TGI (RPMI-8226 leukemia): > 100 µM
- TGI (RXF 393 renal): > 100 µM
- TGI (SF-268 CNS): > 100 µM
- TGI (SF-295 CNS): > 100 µM
- TGI (SF-539 CNS): > 100 µM
- TGI (SK-MEL-2 melanoma): > 100 µM
- TGI (SK-MEL-28 melanoma): > 100 µM
- TGI (SK-MEL-5 melanoma): > 100 µM
- TGI (SK-OV-3 ovarian): > 100 µM
- TGI (SN12C renal): > 100 µM
- TGI (SNB-19 CNS): > 100 µM
- TGI (SNB-75 CNS): > 100 µM
- TGI (SR leukemia): > 100 µM
- TGI (SW-620 colon): > 100 µM
- TGI (TK-10 renal): > 100 µM
- TGI (U251 CNS): > 100 µM
- TGI (UACC-257 melanoma): > 100 µM
- TGI (UACC-62 melanoma): > 100 µM

From PubChem BioAssay (NCI)
